Experimental data as given in paper PMC11851433, “Novel Quinazoline Derivatives Inhibit Splicing of Fungal Group II Introns” (ACS Chemical Biology, 2025).
Converted amounts (≈) assume the structure as drawn. Where two headings read alike, the source gives them in different places. Blank lines part the entries; values can stand above or below the molecule they belong to.

Tests used:
HEK-293T cells = assay: Cytotoxicity in HEK-293T cells (Cell Titer Glo); assay type: cell-based; conditions: Homo sapiens, read-out: IC50 for cell growth inhibition
Experimental: For the cytotoxicity experiments, cells were aliquoted into black 96-well plates with a clear bottom (Corning 3603), grown, treated with the inhibitors, and subjected to the Cell Titer Glo cell viability assay (Promega) as previously described.[33] All experiments were performed in triplicate.

D135 ribozyme = assay: HTS / dose–response intron activity assay (fluorescently labeled substrate, D135 ribozyme); assay type: biochemical, Saccharomyces cerevisiae; conditions: 10 concentrations, highest 100 μM, 1:3 serial dilution
Experimental: The RNA oligonucleotide substrate for HTS, containing the last 17 nucleotides of the native 5′-exon and the first two nucleotides of the ai5γ intron,[33] was synthesized on a MerMade 12 RNA-DNA synthesizer (BioAutomation) using TBDMS RNA phosphoramidites (TxBio), aminomodifier C6dT, and Black Hole Quencher 2 CPG (Glen Research). For base deprotection, the oligonucleotide was treated with 30% ammonium hydroxide (JT Baker) for 24 h at RT. The 2’–OH deprotection and oligonucleotide purification were carried out as described.[57],[58] Fluorescent labeling of the substrate with the NHS ester of AlexaFluor 555 was carried out as described.[33]
HTS was carried out by CRL using the fluorescently labeled substrate, unlabeled D135 ribozyme (see above), and a proprietary library of ∼1,50,000 compounds using assay conditions previously described,[33] with the following adaptations. The D135 ribozyme (20 nM final concentration) was first prefolded in a buffer of 50 mM MOPS, pH 7.5, 50 mM MgCl2, and 500 mM KCl at 37 °C for 30 min. Library compounds were then added at 12.5 μM final concentration followed by addition of the substrate (to 15 nM final concentration), and the reaction mixtures were incubated at 37 °C for 40 min. Reactions were was quenched by addition of urea (2.67 M final) and analyzed as described. […]

ai5γ group II intron [1] = assay: Radioanalytic in vitro splicing assay, splicing inhibition constants; assay type: biochemical, Saccharomyces cerevisiae; conditions: for improvement of inhibitory activity (Ki) relative to compound 3: vs compound 3
Experimental: Internally ^32P-labeled ai5γ intron RNA with short exons[54] was in vitro transcribed in the presence of ^32P-α-UTP using T7 RNA polymerase and purified on a 5% denaturing polyacrylamide gel as described.[55] Large-scale transcription of the […] ribozyme, utilized for HTS, was carried out as previously described.[56] Splicing inhibition constants were determined as previously described[33],[34] with the following change in the experimental procedure: reactions were carried out in a buffer of 50 mM MOPS pH 7.5, 100 mM MgCl2, and 500 mM KCl at 42 °C. Aliquots of the reaction mixture were withdrawn at different time points, quenched, and analyzed on a 5% denaturing polyacrylamide gel as previously described.[55] Inhibition constants were determined as previously described.[33],[34] Experiments were performed twice to ensure reproducibility. Data represent average ± s.e.m.

C. parapsilosis = assay: MIC determination for C. parapsilosis (CLSI M27-A3); assay type: cell-based, Candida parapsilosis; conditions: for MIC C. parapsilosis: Supplementary table 1; for MIC: Lodderomyces parapsilosis
Experimental: C. parapsilosis [strain American Type Culture Collection (ATCC) 22019] was purchased from ATCC and cultured according to the manufacturer’s instructions. S. cerevisiae wild-type (NP40-36a) and mtDNA intronless (XPM46) strains were a gift from Dr. Thomas Fox (Dept. of Molecular Biology and Genetics, Cornell University).[44] MICs for C. parapsilosis were determined as previously described[33] according to the guidelines from the protocol M27-A3 from the Clinical and Laboratory Standards Institute (CLSI).[59] All experiments were performed in triplicate.

[2] = system: COX1 intronless S. cerevisiae strain; assay: Inhibition of S. cerevisiae growth, COX1 intronless strain; assay type: cell-based, Saccharomyces cerevisiae
Experimental: (§1) C. parapsilosis [strain American Type Culture Collection (ATCC) 22019] was purchased from ATCC and cultured according to the manufacturer’s instructions. S. cerevisiae wild-type (NP40-36a) and mtDNA intronless (XPM46) strains were a gift from Dr. Thomas Fox (Dept. of Molecular Biology and Genetics, Cornell University).[44]
(§2) Reduction of yeast growth in the presence of inhibitor molecules was assayed either in liquid YPD media (BD Bacto Yeast Extract, BD Bacto Peptone, 2% glucose) or in YPG media (BD Bacto Yeast Extract, BD Bacto Peptone, 3% glycerol), as previously described[33],[34],[59] with the following adaptations. Yeast cultures were grown for 24 h in YPD medium and for […] in YPG medium. All experiments were performed in triplicate to ensure reproducibility.

WT S. cerevisiae strain = assay: Inhibition of S. cerevisiae growth, WT strain; assay type: cell-based, Saccharomyces cerevisiae
Experimental: as §1, §2

[3] = system: C. parapsilosis COX1 precursor mRNA splicing; assay: In cellulo analysis of group II intron splicing by qRT-PCR; assay type: cell-based, Candida parapsilosis; conditions: compound 64 μg/mL, PGK1 as standard
Experimental: C. parapsilosis (ATCC: 22019) growth and harvest was performed essentially as described[33] with the following modifications. Compounds dissolved in DMSO were added to individual cultures to a final concentration of 64 μg/mL. Total RNA was isolated using an E.Z.N.A Fungal RNA Mini Kit (Omega Bio-tek) according to the manufacturer’s protocol. The RNA was eluted in 50 μL of a 1:100 mixture of SUPERaseIn RNase inhibitor (Thermo Fisher): MOPS-EDTA (ME) buffer [10 mM MOPS (pH 6.5), 0.1 mM Na-EDTA (pH 8.5)] followed by DNase treatment with RQ1 DNase (Promega) for 30 min at 37 °C. Then, the reaction was mixed with 7 μL of 3 M NaOAc and precipitated with 80% EtOH at –20 °C. The recovered RNA was resuspended in 30 μL of 1:100 mixture of SUPERaseIn RNase inhibitor/ME buffer. Next, 200 ng of Random Hexamer Primers (Thermo Fisher) was annealed to 10 ng of RNA in 11 μL at 65 °C for 5 min. The annealing reaction mixture was then cooled to RT, followed by the addition of 9 μL of a SuperScript III (Thermo Fisher) master mix: 1X First Strand Synthesis Buffer, 0.5 mM dNTPs (NEB: N0447S), 5 mM DTT, 10U SUPERaseIn RNase inhibitor, and 100 U SuperScript III. Manufacturer reverse transcription conditions were used, followed by an inactivation step at 75 °C for 15 min. After reverse transcription, RNA was degraded by adding 1.5 μL of a 1:1:1 mixture of RNase H (NEB), RNase A (NEB), and RNase T1 (Thermo Fisher) and incubating at 37 °C for 30 min. The cDNA was then purified using AMPure beads (Beckman Coulter) at a 1.8× bead-to-sample ratio according to the manufacturer’s protocol. Purified cDNA was eluted in 30 μL of nuclease-free water. Real-time PCR quantification of cDNA and subsequent determination of the relative levels of PGK1, COX1 (total), and COX1 (unspliced) from different conditions were performed in duplicate with three independent samples as previously described.[33]

ai5γ group II intron [4] = target: ai5γ group II intron; design: method as in PMID 30323219; conditions: for comparison; read-out: Ki of previously published inhibitors; cited from earlier work
[5] = system: C. parapsilosis COX1 precursor mRNA splicing; design: method as in PMID 30323219; conditions: for comparison; cited from earlier work
[6] = Figure 3, 100 mM MgCl2, 500 mM KCl, 42 °C, read-out: Ki for the in vitro splicing of the ai5γ intron
[7] = Supplementary table 1, read-out: Ki ai5γ intron

SMILES: C[C@@H]1[C@H](O)[C@@H](C)/C=C/C=C/C=C/C=C/C=C/C=C/C=C/[C@H](O[C@@H]2O[C@H](C)[C@@H](O)[C@H](N)[C@@H]2O)C[C@@H]2O[C@](O)(C[C@@H](O)C[C@@H](O)[C@H](O)CC[C@@H](O)C[C@@H](O)CC(=O)O[C@H]1C)C[C@H](O)[C@H]2C(=O)O [amphotericin B, reference compound]
IC50 (HEK-293T cells): 2.6 ± 0.2 µg/mL (≈ 2.81 µM)

SMILES: COc1ccc(Nc2nc(-c3ccccn3)nc3ccccc23)cc1 [compound 1]
IC50 (D135 ribozyme): 3 µM
Ki (ai5γ group II intron [1]; [6]): 27 ± 6 µM

SMILES: COc1cccc(CNc2nc(-c3ccccn3)nc3ccccc23)c1 [compound 2]
MIC C. parapsilosis (C. parapsilosis): > 128 µg/mL
Ki (ai5γ group II intron [1]; [7]): 55 ± 19 µM

SMILES: c1ccc(CNc2nc(-c3ccccn3)nc3ccccc23)cc1 [compound 3]
Ki (ai5γ group II intron [1]; [7]): 77 ± 25 µM

SMILES: c1ccc(-c2nc(Nc3ccc4c(c3)OCO4)c3ccccc3n2)nc1 [compound 12]
Ki (ai5γ group II intron [1]; [7]): 11 ± 2 µM
increase in inhibitory activity relative to compound 1 (ai5γ group II intron [1]; vs compound 1): 3 fold

SMILES: c1ccc(-c2nc(N3Cc4ccccc4C3)c3ccccc3n2)nc1 [compound 14]
MIC S. cerevisiae intronless strain [2]: 32 µg/mL (≈ 98.6 µM)
Ki (ai5γ group II intron [1]; [7]): 7.6 ± 1.7 µM
growth inhibition of WT vs COX1 intronless S. cerevisiae strain (WT S. cerevisiae strain; WT more strongly inhibited than intronless strain): eight-fold
MIC S. cerevisiae WT strain (WT S. cerevisiae strain; WT strain): 4 µg/mL (≈ 12.3 µM)

SMILES: FC(F)(F)c1cccc(CNc2nc(-c3ccccn3)nc3ccccc23)c1 [compound 16]
IC50 (HEK-293T cells): 5.6 ± 0.1 µg/mL (≈ 14.7 µM)
MIC ([2]; Saccharomyces cerevisiae): 64 µg/mL (≈ 168 µM)
effect on splicing of C. parapsilosis COX1 (unspliced relative to total COX1 mRNA) [3]: moderate defects
MIC in C. parapsilosis (C. parapsilosis): 4 µg/mL (≈ 10.5 µM)
MIC (C. parapsilosis): 2 to 8 µg/mL (≈ 5.26 to 21 µM)
Ki (ai5γ group II intron [1]; [7]): 5.6 ± 0.6 µM
improvement of inhibitory activity (Ki) relative to compound 3 (ai5γ group II intron [1]): more than 10 fold
MIC (WT S. cerevisiae strain; Saccharomyces cerevisiae): 16 µg/mL (≈ 42.1 µM)

SMILES: CC(=O)c1ccc(-c2ccc3oc(C(=O)c4cc(O)c(O)c(O)c4)cc3c2)cc1 [intronistat A]
Ki (ai5γ group II intron [4]): 2.1 ± 0.2 µM

SMILES: O=C(NCCN1CCCC1)c1ccc2oc(C(=O)c3cc(O)c(O)c(O)c3)cc2c1 [intronistat B]
Ki (ai5γ group II intron [4]): 0.36 ± 0.02 µM
levels of unspliced vs total C. parapsilosis COX1 transcripts [5]: 1.5 fold

Second part, led by results:

Ki (ai5γ group II intron [1]; [7]): > 100 µM
SMILES: COc1ccc(Nc2ncnc3ccccc23)cc1 [compound 4]

MIC C. parapsilosis (C. parapsilosis): 16 µg/mL (≈ 60.3 µM)
Ki (ai5γ group II intron [1]; [7]): > 100 µM
SMILES: COc1cccc(CNc2ncnc3ccccc23)c1 [compound 5]

Ki (ai5γ group II intron [1]; [7]): > 100 µM
SMILES: c1ccc(Nc2ncnc3ccccc23)cc1 [compound 6]

Ki (ai5γ group II intron [1]; [7]): > 100 µM
SMILES: c1ccc(CNc2ncnc3ccccc23)cc1 [compound 7]

Ki (ai5γ group II intron [1]; [7]): > 100 µM
SMILES: Nc1nc(-c2ccccn2)nc2ccccc12 [compound 8]

Ki (ai5γ group II intron [1]; [7]): > 100 µM
SMILES: c1ccc(-c2ncc3ccccc3n2)nc1 [compound 9]

MIC (C. parapsilosis): 2 to 8 µg/mL (≈ 5.64 to 22.6 µM)
Ki (ai5γ group II intron [1]; [7]): 11 ± 2 µM
SMILES: CC(C)(C)c1ccc(Nc2nc(-c3ccccn3)nc3ccccc23)cc1 [compound 10]

Ki (ai5γ group II intron [1]; [7]): > 100 µM
SMILES: CC(C)(C)c1ccc(Nc2nc(-c3ccncc3)nc3ccccc23)cc1 [compound 11]
inhibitory activity in the splicing assay (in words) (ai5γ group II intron [1]): completely abolishes activity

Ki (ai5γ group II intron [1]; [7]): 6.4 ± 1.9 µM
improvement of inhibitory activity (Ki) relative to compound 3 (ai5γ group II intron [1]): more than 10 fold
SMILES: CC(C)(C)c1cccc(CNc2nc(-c3ccccn3)nc3ccccc23)c1 [compound 15]

MIC in C. parapsilosis (C. parapsilosis): 2 µg/mL (≈ 5.77 µM)
MIC (C. parapsilosis): 2 to 8 µg/mL (≈ 5.77 to 23.1 µM)
Ki (ai5γ group II intron [1]; [7]): 2.6 ± 0.5 µM
improvement of inhibitory activity (Ki) relative to compound 3 (ai5γ group II intron [1]): 30 fold
SMILES: Clc1cccc(CNc2nc(-c3ccccn3)nc3ccccc23)c1 [compound 17]
IC50 (HEK-293T cells): 3.9 ± 0.1 µg/mL (≈ 11.2 µM)
effect on splicing of C. parapsilosis COX1 (unspliced relative to total COX1 mRNA) [3]: moderate defects

Ki (ai5γ group II intron [1]; [7]): 20 ± 6 µM
SMILES: FC(F)(F)c1cccc(CNc2nc(-c3ccccn3)nc3cc(Cl)ccc23)c1 [compound 18]
drop in inhibitory activity relative to compound 16 (ai5γ group II intron [1]; vs compound 16): four-fold

Ki (ai5γ group II intron [1]; [6]): 1.4 ± 0.4 µM
SMILES: Clc1cccc(CNc2nc(-c3ccccn3)nc3cc(Cl)ccc23)c1 [compound 19]
effect on splicing of C. parapsilosis COX1 (unspliced relative to total COX1 mRNA) [3]: remained unchanged
